The values that follow come from US20080176952A1, “Management of Ophthalmologic Disorders, Including Macular Degeneration” (priority 2004, published 2008).

One experiment has as its target T1, RPE65 (Bos taurus, UniProt Q28175).
T1 construct: Frozen bovine eyecups devoid of retinas were purchased from W. L. Lawson Co; tissue W. L. Lawson Co; host or cells: bovine eyecups (retinal pigment epithelium)
Briefly: Fluorescence binding assay of retinoids and analogs to purified RPE65. Details: species or system bovine. The following applies: antagonist of RPE65; read-out: KD. Here is the method:
Purification of mRPE65, sRPE65 and rHRPE65: Purification was performed as described before (Ma et al., 2001). The purities of these proteins were verified by silver staining or Coomassie staining and Western blot (1:4000 primary antibody-1 h at room temperature and 1:4000 secondary antibody-0.5 h at room temperature).
(§1) Fluorescence binding assays: RPE65 in PBS, 1% CHAPS, pH 7.4 was used in the fluorometric titration studies. Protein concentrations were measured by a modified Lowry method (Lowry et al., 1951). All titrations were performed at 25° C. The samples in PBS buffer were excited at 280 nm and the fluorescence was scanned from 300 to 500 nm. Fluorescence measurements, using 450 μL quartz cuvettes with a 0.5 cm path length, were made at 25° C. on a Jobin Yvon Instruments, Fluoromax 2 employing the right-angle detection method.
(§2) The fluorescence of the protein solution was measured after equilibrating it at 25° C. for 10 min. The sample was then titrated with a solution of retinoid dissolved in dimethyl sulfoxide. In each titration, to a 250 μL solution of the protein an equal amount of retinoid, typically 0.2 μL. was added and thoroughly mixed before allowing it to equilibrate for 10 min prior to recording the fluorescence intensity. […] The binding constant (KD) was calculated from the fluorescence intensity by using the following equation (Gollapalli et al., 2003).
where P0=Total protein concentration,
n=number of independent binding sites, R0=Total retixioid concentration at each addition, KD=dissociation constant, Fmax=Fluorescence intensity at saturation, and F0=Initial fluorescence intensity.

In a further experiment the target is mouse RPE65. Briefly: Constants of affinity (Kds) for mouse RPE65. The experiment is classed as binding. The note with it: read-out: Kd (constant of affinity) for mouse RPE65. On the procedure:
as §1, §2
The constants of affinity (Kds) of several compounds for mouse RPE65 were determined. […] Thus, the potency of binding is a function of the ester chain length, i.e., the longer the chain length, the stronger the affinity for RPE65 is and the stronger the antagonist is.

Another experiment concerns A2E formation. Kind of experiment: In vitro A2E formation in the presence of aromatic amine. Here is the method:
100 mg (355 μmoles) of all-trans-retinal was dissolved in 3 mL followed by the addition of 9.5 μL of glacial acetic acid 9.5 μL of ethanolamine (155 μmoles). This solution was aliquoted into 300 μL fractions. 3-aminoethylbenzoate (15.5 μmoles) was added to the samples at 0, 2, 3.75, 14, 16.25, 18.0833 19.917 23.75 and 48 hrs. […] The solutions were shaken at room temperature for 48 hrs. The solutions were then kept at −80° C. and 15 μL was diluted to 250 μL (methanol). The solutions (15 μL) were then analyzed on a reverse phase (C18-5 μm-4.6 mm×150 mm) column on a linear gradient 85%-96% methanol/water and UV detector at 430 nm to determine the amount of A2E formation. The percent A2E formation was compared to A2E formation at 48 h in the absence of aromatic amine.

Another experiment deals with A2E accumulation. Kind of experiment: In vivo A2E accumulation in abcr knockout mice. The following applies: for A2E accumulation / iso-A2E accumulation / total (A2E + iso-A2E) accumulation: 50 mg/kg once or twice a week, 2 to 2½ months; for reduction of A2E accumulation / reduction of iso-A2E accumulation / reduction of total A2E accumulation: versus no drug. On the procedure: Effects on accumulation of A2E in abcr knockout mice by farnesyl decyl ketone and N-palmityl farnesimide were investigated. Mice were injected with 50 mg/kg drug in 25 microliters of DMSO or with only DMSO for the control group once or twice a week. After 2 to 2½ months, the mice were sacrificed, and A2E and iso-A2E were harvested and quantitated from 4 eyes for each drug or control.

T1 sequence (Q28175 whole entry): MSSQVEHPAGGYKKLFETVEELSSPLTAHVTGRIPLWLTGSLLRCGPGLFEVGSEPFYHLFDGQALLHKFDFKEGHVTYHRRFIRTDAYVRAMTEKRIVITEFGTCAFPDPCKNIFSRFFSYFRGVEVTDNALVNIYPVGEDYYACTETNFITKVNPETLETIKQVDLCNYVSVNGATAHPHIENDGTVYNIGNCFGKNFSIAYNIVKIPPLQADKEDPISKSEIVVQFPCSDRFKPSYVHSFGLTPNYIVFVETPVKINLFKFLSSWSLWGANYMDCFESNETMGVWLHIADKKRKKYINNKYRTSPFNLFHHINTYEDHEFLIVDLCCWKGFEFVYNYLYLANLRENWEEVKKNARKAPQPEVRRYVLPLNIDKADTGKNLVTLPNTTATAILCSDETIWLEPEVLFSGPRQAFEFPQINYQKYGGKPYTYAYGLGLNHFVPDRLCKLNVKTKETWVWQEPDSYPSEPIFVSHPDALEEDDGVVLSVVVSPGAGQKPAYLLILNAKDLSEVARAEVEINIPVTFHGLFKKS

For orientation: Kd means the constant that tells how readily two partners part at equilibrium. Regarding `CCCCCCCCCCCCCCCC(=O)OC/C=C(\C)CC/C=C(\C)CC/C=C(\C)CCC=C(C)C` [geranylgeranyl palmitate], the Kd at RPE65 was 213 nM.

As to `CC1=C(/C=C/C(C)=C/C=C/C(C)=C/C(=O)N(C)C)C(C)(C)CCC1` [N,N-dimethyl retinimide], at RPE65, the equilibrium dissociation constant (Kd) was found to be 3580 nM.

Turning to `CCCCCCCCCCCCCCCC(=O)NC/C=C(\C)CC/C=C(\C)CCC=C(C)C`, the equilibrium dissociation constant (Kd) at RPE65 is 56 nM.

Regarding `COCCOCCOC/C=C(C)/C=C/C=C(C)/C=C/C1=C(C)CCCC1(C)C` [retinyl [2-(2′-methoxy)ethoxy]ethyl ether], the Kd at RPE65 worked out at 486 nM.

On to `CCCCCCCCCC(=O)CC/C=C(\C)CC/C=C(\C)CCC=C(C)C`, for which, at RPE65, the Kd came out at 56 nM.

For `CCCCCCCCCC(=O)CC/C=C(C)/C=C/C=C(C)/C=C/C1=C(C)CCCC1(C)C`, the Kd at RPE65 came out at 173 nM.

Regarding `CCCCCCCCCCCCCCCC(=O)OC/C=C(\C)CCC=C(C)C` [geranyl palmitate], the Kd at RPE65 was determined as 301 nM.

As to `CCCCCCCCCCCCCCCCOC/C=C(\C)CC/C=C(\C)CCC=C(C)C` [farnesyl palmityl ether], the Kd on RPE65 is 60 nM.

For the compound `CC(=O)OC/C=C(C)/C=C/C=C(C)/C=C/C1=C(C)CCCC1(C)C` [retinyl acetate], the Kd on mouse RPE65 and at RPE65 was 1300 nM in each case.

Turning to `CCCCCCCCCCCCCCCC(=O)NC/C=C(C)/C=C/C=C(C)/C=C/C1=C(C)CCCC1(C)C` [4e], on mouse RPE65, the Kd turned out to be 40 nM.

As to `CCCCCCCCCCCCCCCC(=O)CC/C=C(C)/C=C/C=C(C)/C=C/C1=C(C)CCCC1(C)C` [4f], the dissociation constant (Kd) at mouse RPE65 and on RPE65 was 64 nM each time.

As for `CCOC(=O)c1cccc(N)c1` [3-aminoethylbenzoate, ethyl 3-aminobenzoate], the “A2E formation % formation (48 Hrs = 100)” value with A2E formation (aromatic amine added at 0 hrs, read at 48 hrs) stood at 3.98%; in the experiment on A2E formation (aromatic amine added at 2 hrs, read at 48 hrs), 8.67%; in the experiment with A2E formation (aromatic amine added at 3.75 hrs, read at 48 hrs) it was 7.71%; with A2E formation (aromatic amine added at 14 hrs, read at 48 hrs) it was 19.73%; in the experiment on A2E formation (aromatic amine added at 16.25 hrs, read at 48 hrs) it was 19.25%; in the experiment with A2E formation (aromatic amine added at 18.0833 hrs, read at 48 hrs) it was 23.70%. The “A2E formation % formation (48 Hrs = 100)” value is given as 27.65% in the experiment with A2E formation (aromatic amine added at 19.91667 hrs, read at 48 hrs); 22.44% with A2E formation (aromatic amine added at 23.75 hrs, read at 48 hrs); 100.00% in the experiment with A2E formation (aromatic amine added at 48 hrs, reference = 100).

Take `CC1=C(/C=C/C(C)=C/C=C/C(C)=C/C(=O)NC(C)(C)C)C(C)(C)CCC1` [N-tert-butyl retinimide]: the equilibrium dissociation constant (Kd) at RPE65 is 4320 nM.

Take retinyl hexanoate: the Kd on mouse RPE65 and at RPE65 was 235 nM in each case.

As to `CCCCCCCCCCCCCCCC(=O)OC/C=C(\C)CC/C=C(\C)CCC=C(C)C` [farnesyl palmitate], on RPE65, the Kd worked out at 63 nM.

Take `CC(=O)/C=C(C)/C=C/C=C(C)/C=C/C1=C(C)CCCC1(C)C` [methyl retinyl ketone]: the Kd on RPE65 was determined as 3790 nM.

As for `CCCCCCCCCCCCCCCCC(=O)/C=C(C)/C=C/C=C(C)/C=C/C1=C(C)CCCC1(C)C` [palmityl retinyl ketone], the Kd at RPE65 came out at 64 nM.

On to `CCCCCCCCCCCCCCCCC(O)/C=C(C)/C=C/C=C(C)/C=C/C1=C(C)CCCC1(C)C` (stereo not shown) [palmityl retinyl alcohol], for which the Kd on RPE65 turned out to be 170 nM.

As to `CCCCCCCCCCCCCCCC(=O)OC/C=C(C)/C=C/C1=C(C)CCCC1(C)C` [β-ionoacetyl palmitate], the Kd on RPE65 is 153 nM.

As to `COC/C=C(C)/C=C/C=C(C)/C=C/C1=C(C)CCCC1(C)C` [methyl retinyl ether], the Kd on RPE65 was 24 nM.

Consider `CCCCCCOC/C=C(C)/C=C/C=C(C)/C=C/C1=C(C)CCCC1(C)C` [hexyl retinyl ether], for which the Kd at RPE65 worked out at 151 nM.

`CCCCCCCCCCCCCCCCOC/C=C(C)/C=C/C=C(C)/C=C/C1=C(C)CCCC1(C)C` [palmityl retinyl ether]: the Kd turned out to be 21 nM on mouse RPE65 and 25 nM on RPE65.

`CCCCCCCCCCCCCCCCOC/C=C(\C)CCC=C(C)C` [geranyl palmityl ether]: the Kd at RPE65 is 416 nM.

Turning to `CCCCCCCCCCCCCCCC(=O)CC/C=C(\C)CC/C=C(\C)CCC=C(C)C`, on RPE65, the Kd stood at 96 nM.

With `CCCCCCCCCCCCCCCCNC(=O)C/C=C(\C)CC/C=C(\C)CCC=C(C)C` [N-palmityl farnesimide], in the experiment with A2E accumulation, the A2E accumulation came out at 5.38 pmoles/eye, the iso-A2E accumulation came to 1.70 pmoles/eye, the “total (A2E + iso-A2E) accumulation” value worked out at 7.09 pmoles/eye and the “reduction of A2E accumulation” value was “over 50%”. In addition, in the experiment on A2E accumulation, the “reduction of iso-A2E accumulation” value was “about 33%” and the “reduction of total A2E accumulation” value is “about 47%”.

With `CCCCCCCCCCC(=O)CC=C(C)CCC=C(C)CCC=C(C)C` [farnesyl decyl ketone], in the experiment on A2E accumulation, the A2E accumulation is on record as 2.00 pmoles/eye, the iso-A2E accumulation is reported as 0.66 pmoles/eye, the “total (A2E + iso-A2E) accumulation” value was found to be 2.66 pmoles/eye and the “reduction of A2E accumulation” value is listed as “over 80%”. In the experiment with A2E accumulation, the “reduction of iso-A2E accumulation” value was “about 74%” and the “reduction of total A2E accumulation” value is listed as “about 80%”.

For the compound `CC(=O)CC/C=C(C)/C=C/C=C(C)/C=C/C1=C(C)CCCC1(C)C`, at RPE65, the Kd amounted to 3790 nM.

Regarding `CCCCCCCCCCCCCCCCOC/C=C(\C)CC/C=C(\C)CC/C=C(\C)CCC=C(C)C` [geranylgeranyl palmityl ether], the Kd on RPE65 is 195 nM.

On to `CCCCCCCCCCCCCCCCNC(=O)/C=C(C)/C=C/C=C(C)/C=C/C1=C(C)CCCC1(C)C` [N-palmityl retinimide], for which the Kd on RPE65 is 40 nM.

As to `CCCCCCCCCCCCCCCCOC/C=C(C)/C=C/C1=C(C)CCCC1(C)C` [β-ionoacetyl palmityl ether], on RPE65, the Kd worked out at 156 nM.
